The results in this text go back to publication PMC2787200 (Organic letters, 2008).

The target in this test is ERα (Homo sapiens, UniProt P03372). Briefly: competitive radiometric binding assay with tritiated estradiol.
Sequence of ERα (P03372 whole entry): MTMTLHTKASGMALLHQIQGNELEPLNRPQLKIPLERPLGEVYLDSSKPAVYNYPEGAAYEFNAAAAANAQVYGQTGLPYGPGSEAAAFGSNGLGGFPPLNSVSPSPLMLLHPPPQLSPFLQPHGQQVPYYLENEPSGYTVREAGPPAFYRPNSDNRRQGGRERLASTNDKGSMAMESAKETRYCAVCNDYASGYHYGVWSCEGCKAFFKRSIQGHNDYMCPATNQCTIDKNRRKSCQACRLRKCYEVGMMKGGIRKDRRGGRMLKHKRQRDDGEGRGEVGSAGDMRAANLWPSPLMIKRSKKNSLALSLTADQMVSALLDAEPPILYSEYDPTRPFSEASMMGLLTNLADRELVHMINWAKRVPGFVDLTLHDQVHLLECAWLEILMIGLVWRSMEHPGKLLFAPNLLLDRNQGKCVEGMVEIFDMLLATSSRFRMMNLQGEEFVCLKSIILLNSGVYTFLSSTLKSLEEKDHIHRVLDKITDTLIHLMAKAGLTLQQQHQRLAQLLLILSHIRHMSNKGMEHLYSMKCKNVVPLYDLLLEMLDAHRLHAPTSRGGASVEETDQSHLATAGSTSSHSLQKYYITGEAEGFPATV

The Ki is the equilibrium dissociation constant of an inhibitor or competing ligand from its target. “Cyclofenil-conjugated SNAPFL [compound 2]” gave a Ki of roughly 6 nM.
